The source of these data is patent US20240309043A1, “THERAPEUTICALLY ACTIVE STEROIDAL DERIVATIVES” (Organon R&D Finland Ltd., priority 2017, published 2024).

Holding throughout (type): biochemical
Experiment [1] addresses T1, recombinant human 17β-HSD1 (Homo sapiens, UniProt P14061).
T1 construct: made in house; host or cells: Sd9 (Sf9) insect cells, baculovirus (Bac to Bac Expression System)
T1 sequence (P14061 1-328): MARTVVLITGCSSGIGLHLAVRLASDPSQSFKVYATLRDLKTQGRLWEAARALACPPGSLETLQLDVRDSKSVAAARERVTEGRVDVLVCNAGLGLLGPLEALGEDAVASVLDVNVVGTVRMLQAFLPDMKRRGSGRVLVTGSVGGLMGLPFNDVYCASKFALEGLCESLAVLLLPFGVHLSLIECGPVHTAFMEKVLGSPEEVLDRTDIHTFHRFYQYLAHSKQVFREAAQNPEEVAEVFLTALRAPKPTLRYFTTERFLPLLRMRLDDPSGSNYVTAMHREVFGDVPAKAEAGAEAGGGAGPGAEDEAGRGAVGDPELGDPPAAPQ
Put plainly: Inhibition of recombinant human 17β-HSD1. To be noted: inhibitor 100 nM; 30 nM estrone, 1 mM NADPH, 30 min RT. As to the method: 17β-HSD1 production and isolation: Recombinant baculovirus was generated by the “Bac to Bac Expression System” (Invitrogen). Recombinant bacmid was transfected to Sd9 insect cells using “Cellfectin Reagent” (Invitrogen). 60 h later cells were harvested; the microsomal fraction was isolated as described by Puranen, T. J., Poutanen, M. H., Peltoketo, H. E., Vihko, P. T. and Vihko, R. K. (1994) Site-directed mutagenesis of the putative active site of human 17 β-hydroxysteroid dehydrogenase type 1. Biochem. J. 304: 289-293. Aliquots were stored frozen until determination of enzymatic activity.
Assay—Inhibition of recombinant human 17β-HSD1: Recombinant protein (1 μg/ml) was incubated in 20 mM KH2PO4 pH 7.4 with 30 nM estrone (including 800 000 cpm/ml of ^3H-estrone) and 1 mM NADPH for 30 min at RT, in the presence of the potential inhibitor at concentrations 1 μM or 0.1 μM. Inhibitor stock solutions were prepared in DMSO. Final concentration of DMSO was adjusted to 1% in all samples. The enzyme reaction was stopped by addition of 10% trichloroacetic acid (final concentration). Samples were centrifuged in a microtiter plate at 4000 rpm for 10 min. Supernatants were applied to reverse phase HPLC on a Waters Symmetry C18 column, equipped with a Waters Sentry Guard column. Isocratic HPLC runs were performed at RT at a flow rate of 1 ml/min in acetonitrile:water 48:52 as running solvent. Radioactivity was monitored in the eluate by a Scintillation Analyzer. Total radioactivity for estrone and estradiol were determined in each sample and percent conversion of estrone to estradiol was calculated according to the following formula:
(§1) [formula] Percent inhibition was calculated flowingly: % inhibition=100−% conversion

Experiment [2] deals with T2, recombinant human 17β-HSD2 (Homo sapiens, UniProt P37059).
T2 construct: made in house; host or cells: Sd9 (Sf9) insect cells, baculovirus (Bac to Bac Expression System)
T2 sequence (P37059 1-387): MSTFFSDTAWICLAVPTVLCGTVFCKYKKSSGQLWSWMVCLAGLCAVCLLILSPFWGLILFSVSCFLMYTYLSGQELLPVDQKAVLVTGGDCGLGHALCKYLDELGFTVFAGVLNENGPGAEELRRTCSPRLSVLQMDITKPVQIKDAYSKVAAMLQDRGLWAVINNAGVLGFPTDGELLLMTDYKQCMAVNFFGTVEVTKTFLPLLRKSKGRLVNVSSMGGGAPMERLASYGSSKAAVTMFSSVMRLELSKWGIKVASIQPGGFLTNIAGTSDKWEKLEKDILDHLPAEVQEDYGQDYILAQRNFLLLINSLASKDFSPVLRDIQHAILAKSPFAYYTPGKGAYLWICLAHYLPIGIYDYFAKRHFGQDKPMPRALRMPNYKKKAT
Description: Inhibition of recombinant human 17β-HSD2. Conditions: inhibitor 1 μM; 50 nM estradiol, 1 mM NADH, 30 min RT. On the procedure: 17β-HSD2 production and isolation: Similarly to 17β-HSD1 the Recombinant baculovirus was generated by the “Bac to Bac Expression System” (Invitrogen). Recombinant bacmid was transfected to Sd9 insect cells using “Cellfectin Reagent” (Invitrogen). 60 h later cells were harvested and supernatant were fractionated by the following protocol: • cells were dissolved into 40 ml of A-buffer (40 mM TRIS, pH 8.0, 20% glycerol, 20 μM NAD, 0.4 mM PMSF, 150 mM NaCl, 0.5% dodecyl-β-maltoside+protease inhibitor cocktail) • cells were sonicated • lysate was incubated on ice for 15 min • lysate was centrifuged 5000 rpm 15 min, +4° C. • centrifugation of the supernatant 180 000 g 30 min, +4° C. • pellet was dissolved into 8 ml of A-buffer • not resuspended material was removed by centrifugation 5000 rpm min, +4° C. • the clear supernatant was divided into 100 μl aliquots and were stored frozen until determination of enzymatic activity.
The amount of 17β-HSD2 was analysed by immunoblotting and total protein concentration of each extract batch was determined.
Assay—Inhibition of recombinant human 17β-HSD2: Recombinant protein (4 μg/ml) was incubated in 20 mM KH2PO4 pH 8.5 with 50 nM estradiol (including 800 000 cpm/ml of ^3H-estradiol) and 1 mM NADH for 30 min at RT, in the presence of the potential inhibitor at concentrations 1 μM or 0.1 μM. Inhibitor stock solutions were prepared in DMSO. Final concentration of DMSO was adjusted to 1% in all samples. The enzyme reaction was stopped by addition of 10% trichloroacetic acid (final concentration). Samples were centrifuged in a microtiter plate at 4000 rpm for 10 min. Supernatants were applied to reverse phase HPLC on a Waters Symmetry C18 column, equipped with a Waters Sentry Guard column. Isocratic HPLC runs were performed at RT at a flow rate of 1 ml/min in acetonitrile:water 48:52 as running solvent. Radioactivity was monitored in the eluate by a Scintillation Analyzer. Total radioactivity for estrone and estradiol were determined in each sample and percent conversion of estradiol to estrone was calculated according to the following formula:
as §1

Experiment [3] has as its system HSD1 enzyme that is expressed in rabbit placenta tissue. Description: Inhibition of E1 to E2 conversion in rabbit placenta tissue homogenate. Conditions: inhibitor 100 nM, 30 nM estrone, 30 min. As to the method: The assay is based on an enzymatic reaction where HSD1 enzyme that is expressed in rabbit placenta tissue converts its natural substance estrone (E1) to estradiol (E2) in the presence of a co-factor β-NADPH.
Homogenization of rabbit placenta tissue: Weight a piece of the frozen tissue into a Precellys ck28 bead tube. Add buffer solution (20 mM KH2PO4 with 1 mM EDTA, pH 7,4) in 1:2 ratio (e.g. 300 mg of tissue:600 μl reaction buffer solution). Insert the bead tubes to homogenizer and homogenize 2×30 s. 6000 rpm. Centrifugated 5 min., 2600 rpm at +4° C. and collect supernatant. Aliquots of homogenate are stored in −80° C.
Assay—Inhibition of E1 to E2 conversion in rabbit placenta tissue: The reaction takes place in a buffer solution (20 mM KH2PO4 with 1 mM EDTA, pH 7,4), including appropriate amount of rabbit placenta homogenate, co-factor (1 mM β-NADPH), Substrate (30 nM estrone), labelled substrate as tracer (5 nM [^3H]-estrone). During a 30-minute incubation part of the estrone is converted to estradiol. The reaction is stopped by lowering the pH to 1 with 10% trichloro acetic acid (TCA). The substrate and conversion products are analyzed by HPLC and a Scintillation counter analyzer. Total radioactivity for estrone and estradiol were determined in each sample and percent conversion of estrone to estradiol was calculated according to the following formula:
Percent inhibition was calculated flowingly: % inhibition=100−% conversion.

For `CN(C(=O)CC[C@@H]1C/C(=N\O)[C@@]2(C)CCC3c4ccc(F)cc4CCC3C12)C1COC1` (stereo partly drawn) [Compound 36, 3-((13S,15R,E)-3-fluoro-17-(hydroxyimino)-13-methyl-7,8,9,11,12,13,14,15,16,17-decahydro-6H-cyclopenta[a]phenanthren-15-yl)-N-methyl-N-(oxetan-3-yl)propanamide], the inhibition at 0.1 µM in experiment [1] is 33%. In addition, the inhibition at 1 µM in experiment [2] amounted to 10%. Also, the “Rabbit placenta inhibition % @100 nM” value in experiment [3] stood at 12%.

Regarding `C[C@]12CCC3c4ccc(Cl)cc4CCC3C1[C@H](CCC(=O)Nc1cccnn1)C/C2=N\O` (stereo partly drawn) [Compound 44, 3-((13S,15R,E)-3-chloro-17-(hydroxyimino)-13-methyl-7,8,9,11,12,13,14,15,16,17-decahydro-6H-cyclopenta[a]phenanthren-15-yl)-N-(pyridazine-3-yl)propanamide], the inhibition at 0.1 µM in experiment [1] came to 20%. The inhibition at 1 µM in experiment [2] was 2%. Further, the “Rabbit placenta inhibition % @100 nM” value in experiment [3] is 11%.

On to `Cc1cc(NC(=O)CC[C@@H]2C/C(=N\O)[C@@]3(C)CCC4c5ccc(F)cc5CCC4C23)no1` (stereo partly drawn) [Compound 134, 3-((13S,15R,E)-3-fluoro-17-(hydroxyimino)-13-methyl-7,8,9,11,12,13,14,15,16,17-decahydro-6H-cyclopenta[a]phenanthren-15-yl)-N-(5-methylisoxazol-3-yl)propanamide], for which, in experiment [1], the inhibition at 0.1 µM is 75%. The inhibition at 1 µM in experiment [2] was -3%. In addition, the “Rabbit placenta inhibition % @100 nM” value in experiment [3] amounted to 46%.

For the compound `COc1ccnc(NC(=O)CC[C@@H]2C/C(=N\O)[C@@]3(C)CCC4c5cccc(F)c5CCC4C23)c1` (stereo partly drawn) [Compound 132, 3-((13S,15R,E)-4-fluoro-17-(hydroxyimino)-13-methyl-7,8,9,11,12,13,14,15,16,17-decahydro-6H-cyclopenta[a]phenanthren-15-yl)-N-(4-methoxypyridin-2-yl)propanamide], the inhibition at 0.1 µM in experiment [1] is 87%. In experiment [2], the inhibition at 1 µM turned out to be 6%. In addition, the “Rabbit placenta inhibition % @100 nM” value in experiment [3] came to 27%.

In the case of `C[C@]12CCC3c4ccc(Cl)cc4CCC3C1[C@H](CCC(=O)Nc1ccc(N3CCOCC3)cn1)C/C2=N\O` (stereo partly drawn) [Compound 78, 3-((13S,15R,E)-3-chloro-17-(hydroxyimino)-13-methyl-7,8,9,11,12,13,14,15,16,17-decahydro-6H-cyclopenta[a]phenanthren-15-yl)-N-(5-morpholinopyridin-2-yl)propanamide], in experiment [1], the inhibition at 0.1 µM was 76%. The inhibition at 1 µM in experiment [2] was determined as 1%. For the same compound, the “Rabbit placenta inhibition % @100 nM” value in experiment [3] amounted to 37%.

Turning to `C[C@]12CCC3c4cccc(F)c4CCC3C1[C@H](CCC(=O)N1CCOCC1)C/C2=N\O` (stereo partly drawn) [Compound 136, 3-((13S,15R,E)-4-fluoro-17-(hydroxyimino)-13-methyl-7,8,9,11,12,13,14,15,16,17-decahydro-6H-cyclopenta[a]phenanthren-15-yl)-1-morpholinopropan-1-one], the inhibition at 0.1 µM in experiment [1] was 39%. Also, the inhibition at 1 µM in experiment [2] was -1%. Moreover, the “Rabbit placenta inhibition % @100 nM” value in experiment [3] is listed as 18%.

Consider `C[C@]12CCC3c4ccccc4CCC3C1[C@H](CCC(=O)Nc1cc3c([nH]c1=O)CCCC3)C/C2=N\O` (stereo partly drawn) [Compound 94, 3-((13S,15R,E)-17-(hydroxyimino)-13-methyl-7,8,9,11,12,13,14,15,16,17-decahydro-6H-cyclopenta[a]phenanthren-15-yl)-N-(2-oxo-1,2,5,6,7,8-hexahydroquinolin-3-yl)propanamide], for which the inhibition at 0.1 µM in experiment [1] was 63%. The inhibition at 1 µM in experiment [2] came to 0%. In addition, in experiment [3], the “Rabbit placenta inhibition % @100 nM” value was 8%.

In the case of `C[C@]12CCC3c4ccc(Cl)cc4CCC3C1[C@H](CCC(=O)Nc1cc(F)ccn1)C/C2=N\O` (stereo partly drawn) [Compound 156, 3-((13S,15R,E)-3-chloro-17-(hydroxyimino)-13-methyl-7,8,9,11,12,13,14,15,16,17-decahydro-6H-cyclopenta[a]phenanthren-15-yl)-N-(4-fluoropyridin-2-yl)propanamide], the inhibition at 0.1 µM in experiment [1] was 47%. In addition, the inhibition at 1 µM in experiment [2] was found to be 10%. In addition, the “Rabbit placenta inhibition % @100 nM” value in experiment [3] is 3%.

Consider `C[C@]12CCC3c4ccccc4CCC3C1[C@H](CCC(=O)Nc1ccc(C#N)cn1)C/C2=N\O` (stereo partly drawn) [Compound 100, N-(5-cyanopyridin-2-yl)-3-((13S,15R,E)-17-(hydroxyimino)-13-methyl-7,8,9,11,12,13,14,15,16,17-decahydro-6H-cyclopenta[a]phenanthren-15-yl)propanamide], for which the inhibition at 0.1 µM in experiment [1] was 51%. Further, the inhibition at 1 µM in experiment [2] is -2%. In experiment [3], the “Rabbit placenta inhibition % @100 nM” value is on record as 12%.

Consider `C[C@]12CCC3c4ccc(Cl)cc4CCC3C1[C@H](CCC(=O)Nc1cc3c([nH]c1=O)CCCC3)C/C2=N\O` (stereo partly drawn) [Compound 174, 3-((13S,15R,E)-3-chloro-17-(hydroxyimino)-13-methyl-7,8,9,11,12,13,14,15,16,17-decahydro-6H-cyclopenta[a]phenanthren-15-yl)-N-(2-oxo-1,2,5,6,7,8-hexahydroquinolin-3-yl)propanamide], for which the inhibition at 0.1 µM in experiment [1] was determined as 84%. Also, in experiment [2], the inhibition at 1 µM is 12%. Also, the “Rabbit placenta inhibition % @100 nM” value in experiment [3] came out at 10%.

The inhibition is the drop in the measured response relative to a control, in per cent.
